We go through four compounds from patent US12612410B2 (CHILDREN'S HOSPITAL MEDICAL CENTER, priority 2020, dated 2026).

One may read the IC50 as the concentration that inhibits the measured activity by half.

One assay has as its target T1, IRAK4 (Homo sapiens, UniProt Q9NWZ3).
T1 sequence (Q9NWZ3 1-460): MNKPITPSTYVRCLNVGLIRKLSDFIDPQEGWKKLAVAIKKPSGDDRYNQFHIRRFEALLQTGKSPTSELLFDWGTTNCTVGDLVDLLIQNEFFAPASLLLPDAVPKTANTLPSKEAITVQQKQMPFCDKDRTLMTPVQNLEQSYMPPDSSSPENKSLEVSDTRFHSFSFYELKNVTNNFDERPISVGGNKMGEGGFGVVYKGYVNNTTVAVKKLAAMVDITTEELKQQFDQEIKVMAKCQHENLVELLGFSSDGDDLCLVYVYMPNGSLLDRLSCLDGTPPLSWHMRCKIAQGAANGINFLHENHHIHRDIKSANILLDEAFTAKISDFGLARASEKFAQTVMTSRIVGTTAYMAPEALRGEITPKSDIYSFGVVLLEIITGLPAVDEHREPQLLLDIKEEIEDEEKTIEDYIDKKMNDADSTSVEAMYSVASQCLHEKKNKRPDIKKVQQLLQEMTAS
The assay is described as follows: RBC HotSpot Kinase Assay, IRAK4. The note with it: isolated kinase, 33P-ATP. The assay is classed as biochemical. Set-up: purchased Reaction Biology (RBC), HotSpot kinase assay. Summed up:
(§1)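 Functional radiometric activity assay: kinase + substrate + cofactors in Hepes pH 7.5/MgCl2/EGTA/Brij35/BSA/Na3VO4/DTT, 1% DMSO; cmpd preincubation 20 min RT; 33P-ATP start, 2 h RT; P81 filter-binding readout.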

The target in a further assay is T2, FLT3 (Homo sapiens, UniProt P36888).
T2 sequence (P36888 27-993): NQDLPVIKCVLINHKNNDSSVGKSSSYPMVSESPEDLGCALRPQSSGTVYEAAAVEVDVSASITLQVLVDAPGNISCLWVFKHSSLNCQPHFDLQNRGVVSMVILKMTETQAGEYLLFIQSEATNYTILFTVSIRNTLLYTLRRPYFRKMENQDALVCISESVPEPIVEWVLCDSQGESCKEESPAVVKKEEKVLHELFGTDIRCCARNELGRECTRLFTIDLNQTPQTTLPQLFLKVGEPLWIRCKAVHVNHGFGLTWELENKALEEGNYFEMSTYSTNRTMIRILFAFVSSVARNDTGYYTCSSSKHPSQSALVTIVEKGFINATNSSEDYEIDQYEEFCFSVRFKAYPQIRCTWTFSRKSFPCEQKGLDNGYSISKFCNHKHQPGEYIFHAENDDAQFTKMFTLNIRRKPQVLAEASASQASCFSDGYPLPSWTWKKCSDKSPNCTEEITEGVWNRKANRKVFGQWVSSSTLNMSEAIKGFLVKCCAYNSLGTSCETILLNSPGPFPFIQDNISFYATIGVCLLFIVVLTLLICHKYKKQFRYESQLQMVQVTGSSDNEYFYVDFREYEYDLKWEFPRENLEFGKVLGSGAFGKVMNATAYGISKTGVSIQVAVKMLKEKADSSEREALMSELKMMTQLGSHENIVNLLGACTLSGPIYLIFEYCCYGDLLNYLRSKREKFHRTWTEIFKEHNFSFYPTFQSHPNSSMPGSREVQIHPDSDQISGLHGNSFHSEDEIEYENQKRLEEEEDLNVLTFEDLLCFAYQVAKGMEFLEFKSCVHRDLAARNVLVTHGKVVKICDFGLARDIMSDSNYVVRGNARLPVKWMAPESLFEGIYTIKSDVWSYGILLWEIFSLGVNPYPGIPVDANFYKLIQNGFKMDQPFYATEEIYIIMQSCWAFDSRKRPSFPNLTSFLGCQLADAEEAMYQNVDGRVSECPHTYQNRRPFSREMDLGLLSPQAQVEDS
The assay is described as follows: RBC HotSpot Kinase Assay, FLT3. Further details: purchased Reaction Biology (RBC), HotSpot kinase assay. The assay is classed as biochemical. As to conditions: isolated kinase, 33P-ATP. Summed up: as §1

In assay [1] the test system is NF-κB. The assay is described as follows: NF-kB SEAP reporter assay in THP-1-Blue NF-κB cells, Pam3CSK4 stimulation. As to conditions: Pam3CSK4 1 ng/mL, read-out: NF-κB Pam3SCK4 IC50. The assay is classed as cell-based. Here is the method: (§2) THP-1-Blue NF-xB cells (InvivoGen) carrying a stable integrated NF-κB-inducible secreted embryonic alkaline phosphatase (SEAP) reporter construct were plated at a concentration of 1×10^5 cells per well. The cells were stimulated with Pam3CSK4 (1 ng/mL) or hIL1B (1 ng/mL). After 10-20 minutes, the cells were then treated with vehicle (DMSO) or serial dilutions of the test compounds (10 doses tested for each test compound, with a 1:10 dilution series starting at 1 μM or 3 μM) with a final volume of 200 μL for 24 hours at 37° C. After 24 hours, the cells were centrifuged and 20 μL supernatant was incubated with 180 μL QUANTI-Blue reagent at 37° C. for 30-60 minutes. The levels of NF-κB-induced was measured in a microplate reader at 620 nm.
(In a reporter assay the amount or activity of a reporter protein is the signal.)

Assay [2] has as its system NF-κB. The assay is described as follows: NF-kB SEAP reporter assay in THP-1-Blue NF-κB cells, hIL1B stimulation. The assay is classed as cell-based. The note with it: hIL1B 1 ng/mL, read-out: NF-κB IL1B IC50. As for the experimental part:
as §2

A further assay concerns the target T3, IRAK1 (Homo sapiens, UniProt P51617).
T3 construct: purchased Reaction Biology (RBC), HotSpot kinase assay
The assay is described as follows: RBC HotSpot Kinase Assay, IRAK1. The assay is classed as biochemical. As to conditions: isolated kinase, 33P-ATP. The method in brief:
as §1

A further assay deals with MOLM14 F691L cells. The assay can be described thus: MOLM14 F691L cell viability assay (Cell Titer Glo). The assay is classed as cell-based. The note with it: Homo sapiens, MOLM-14, 48 h. The method in brief:
(§3)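 MOLM14 cells carrying FLT3 D835Y or F691L were seeded at 1000 cells/well in RPMI-1640 with 20% FBS and dosed at 22 concentrations, 1:2 dilutions from 10 μM. Viability after 48 h by Cell Titer Glo luminescence; 2.3 μM bortezomib as cytotoxic control.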
A general note: Cellular ATP, detected with luciferase, serves as a proxy for viable cell number.

For a further assay, the system named is MOLM14 D835Y cells. The assay is described as follows: MOLM14 D835Y cell viability assay (Cell Titer Glo). The assay is classed as cell-based. As to conditions: Homo sapiens, MOLM-14, 48 h. The method in brief:
as §3

T3 sequence (P51617 whole entry): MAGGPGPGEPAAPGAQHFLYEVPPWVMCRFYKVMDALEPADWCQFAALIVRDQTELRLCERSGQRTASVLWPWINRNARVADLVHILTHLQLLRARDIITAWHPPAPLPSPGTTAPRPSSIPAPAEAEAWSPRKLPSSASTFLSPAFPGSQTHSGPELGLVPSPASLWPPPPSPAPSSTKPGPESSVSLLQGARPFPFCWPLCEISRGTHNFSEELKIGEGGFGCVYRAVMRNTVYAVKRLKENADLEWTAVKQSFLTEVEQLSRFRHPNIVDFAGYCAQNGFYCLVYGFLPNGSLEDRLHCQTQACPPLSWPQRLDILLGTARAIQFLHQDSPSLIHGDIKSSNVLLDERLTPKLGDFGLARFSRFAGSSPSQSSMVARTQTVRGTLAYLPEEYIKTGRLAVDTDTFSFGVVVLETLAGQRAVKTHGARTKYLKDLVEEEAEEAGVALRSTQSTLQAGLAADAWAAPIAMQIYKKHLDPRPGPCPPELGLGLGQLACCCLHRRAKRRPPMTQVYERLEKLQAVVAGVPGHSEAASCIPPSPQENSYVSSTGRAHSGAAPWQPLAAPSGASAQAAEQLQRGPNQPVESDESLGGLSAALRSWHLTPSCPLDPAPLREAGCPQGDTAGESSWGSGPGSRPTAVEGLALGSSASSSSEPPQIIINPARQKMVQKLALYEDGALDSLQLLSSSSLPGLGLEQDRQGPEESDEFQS

Take `F[C@H]1CNC[C@@H]1Nc1cccc(-c2cnc3cnc(OCC(F)(F)F)cn23)n1` [Compound 36, N-((3S,4S)-4-fluoropyrrolidin-3-yl)-6-(6-(2,2,2-trifluoroethoxy)imidazo[1,2-a]pyrazin-3-yl)pyridin-2-amine]: the half-inhibitory concentration (IC50) against IRAK4 was 1 nM; against FLT3, below 0.5 nM; in the assay on NF-κB [1] (24 h) it was 17 nM; with NF-κB [2] (24 h), 40 nM; at IRAK1, 190 nM.
On the same counts, the results for `CC(C)Oc1cn2c(-c3cccc(N[C@H]4CNC[C@@H]4F)n3)cnc2cn1` [Compound 59, N-((3S,4S)-4-fluoropyrrolidin-3-yl)-6-(6-isopropoxyimidazo[1,2-a]pyrazin-3-yl)pyridin-2-amine] are below 0.5 nM, below 0.5 nM, 24 nM, 144 nM and 696 nM.
Turning to `O=S1(=O)CCCN1c1cn2c(-c3cccc(N[C@@H]4CCCNC4)n3)cnc2cn1` [Compound 96, (R)-2-(3-(6-(piperidin-3-ylamino)pyridin-2-yl)imidazo[1,2-a]pyrazin-6-yl)isothiazolidine 1,1-dioxide], the IC50 was 39 nM with MOLM14 F691L cells; 7 nM in the assay on MOLM14 D835Y cells; 2 nM on IRAK4; 0.9 nM on FLT3; 20 nM with NF-κB [1] (24 hours); 263 nM in the assay with NF-κB [2] (24 hours). Half-maximal inhibition against IRAK1 (IC50) was put at 49 nM.
Turning to `F[C@H]1CNC[C@@H]1Nc1cccc(-c2cnc3cnc(OCC4CC4)cn23)n1` [compound 60, 6-(6-(cyclopropylmethoxy)imidazo[1,2-a]pyrazin-3-yl)-N-((3S,4S)-4-fluoropyrrolidin-3-yl)pyridin-2-amine], the IC50 is 2 nM against IRAK4; below 0.5 nM against FLT3; 34 nM in the assay with NF-κB [1] (24 h); 356 nM in the assay with NF-κB [2] (24 h); 833 nM against IRAK1.
